According to patent publication US10744136B2, “Sulfonamide derivatives as JAK inhibitors” (Avista Pharma Solutions, Inc., priority 2018, dated 2020):

Molecular target: T1, JAK1 (Homo sapiens, UniProt P23458)
T1 construct: purchased Thermo Fisher Scientific
Assay: Z'-LYTE JAK1 kinase screen (Thermo Fisher Scientific)
Type: biochemical
Conditions: 1% DMSO, ATP at Km apparent; for % Inhibition 10 nM / inhibition at 0.01 µM: test compound 10 nM; for % Inhibition 10 nM: 0.01 µM; for % Inhibition 100 nM / inhibition at 0.1 µM: test compound 100 nM; for % Inhibition 100 nM: 0.1 µM; for % Inhibition 1000 nm: test compound 1000 nm (so in the source)
Procedure: The example compounds were screened for Jak1 activity at Thermo Fisher Scientific, using their Z′-Lyte™ protocol, as described below. Selectivity screening against other kinases can be performed following similar procedures. Z′-LYTE Assay Conditions: The Test Compounds are screened in 1% DMSO (final) in the well. Three screening concentrations (10, 100, and 1000 nM) of test compounds were used. Peptide/Kinase Mixtures: All Peptide/Kinase Mixtures are diluted to a 2× working concentration in the appropriate Kinase Buffer (For JAK1, the 2×JAK1/Tyr 06 mixture is prepared in 50 mM HEPES pH 6.5, 0.01% BRIJ-35, 10 mM MgCl2, 1 mM EGTA, 0.02% NaN3. The final 10 μL Kinase Reaction consists of 21.2-91.5 ng JAK1 and 2 μM Tyr 06 in 50 mM HEPES pH 7.0, 0.01% BRIJ-35, 10 mM MgCl2, 1 mM EGTA, 0.01% NaN3. After the 1 hour Kinase Reaction incubation, 5 μL of a 1:128 dilution of Development Reagent A is added). ATP Solution: All ATP Solutions are diluted to a 4× working concentration in Kinase Buffer (50 mM HEPES pH 7.5, 0.01% BRIJ-35, 10 mM MgCl2, 1 mM EGTA). ATP: Km apparent is previously determined using a Z′-LYTE assay. 10× Novel PKC Lipid Mix: 2 mg/ml Phosphatidyl Serine, 0.2 mg/ml DAG in 20 mM HEPES, pH 7.4, 0.3% CHAPS. For 5 mL 10× Novel PKC Lipid Mix: • 1. Add 10 mgs Phosphatidyl Serine (Avanti Polar Lipids Part #8400032C or 840039C) and 1 mg DAG (Avanti Polar Lipids Part #800811C) to a glass tube. • 2. Remove the chloroform from lipid mixture by evaporating to a clear, thin film under a stream of nitrogen. Continuous rotation of the tube, at an angle to ensure maximum surface area of the lipid solution, will promote the thinnest film. • 3. Add 5 mLs resuspension buffer, 20 mM HEPES, 0.3% CHAPS, pH 7.4, to the dried lipid mix • 4. Heat gently to 50-60° C. for 1-2 minutes and vortex in short intervals until the lipids are dissolved to a clear or slightly hazy solution. The lipids are typically in solution after 2-3 heat/vortex cycles. • 5. Cool to room temperature, aliquot into single use volumes and store at −20° C. Assay Protocol Bar-coded Corning, low volume NBS, black 384-well plate (Corning Cat. #4514) • 1. 100 nL—100× Test Compound in 100% DMSO • 2. 2.4 μL—Kinase buffer • 3. 5 μL—2× Peptide/Kinase Mixture • 4. 2.5 μL—4×ATP Solution • 5. 30-second plate shake • 6. 60-minute Kinase Reaction incubation at room temperature • 7. 5 μL—Development Reagent Solution • 8. 30-second plate shake • 9. 60-minute Development Reaction incubation at room temperature • 10. Read on fluorescence plate reader and analyze the data.

T1 sequence (P23458 whole entry): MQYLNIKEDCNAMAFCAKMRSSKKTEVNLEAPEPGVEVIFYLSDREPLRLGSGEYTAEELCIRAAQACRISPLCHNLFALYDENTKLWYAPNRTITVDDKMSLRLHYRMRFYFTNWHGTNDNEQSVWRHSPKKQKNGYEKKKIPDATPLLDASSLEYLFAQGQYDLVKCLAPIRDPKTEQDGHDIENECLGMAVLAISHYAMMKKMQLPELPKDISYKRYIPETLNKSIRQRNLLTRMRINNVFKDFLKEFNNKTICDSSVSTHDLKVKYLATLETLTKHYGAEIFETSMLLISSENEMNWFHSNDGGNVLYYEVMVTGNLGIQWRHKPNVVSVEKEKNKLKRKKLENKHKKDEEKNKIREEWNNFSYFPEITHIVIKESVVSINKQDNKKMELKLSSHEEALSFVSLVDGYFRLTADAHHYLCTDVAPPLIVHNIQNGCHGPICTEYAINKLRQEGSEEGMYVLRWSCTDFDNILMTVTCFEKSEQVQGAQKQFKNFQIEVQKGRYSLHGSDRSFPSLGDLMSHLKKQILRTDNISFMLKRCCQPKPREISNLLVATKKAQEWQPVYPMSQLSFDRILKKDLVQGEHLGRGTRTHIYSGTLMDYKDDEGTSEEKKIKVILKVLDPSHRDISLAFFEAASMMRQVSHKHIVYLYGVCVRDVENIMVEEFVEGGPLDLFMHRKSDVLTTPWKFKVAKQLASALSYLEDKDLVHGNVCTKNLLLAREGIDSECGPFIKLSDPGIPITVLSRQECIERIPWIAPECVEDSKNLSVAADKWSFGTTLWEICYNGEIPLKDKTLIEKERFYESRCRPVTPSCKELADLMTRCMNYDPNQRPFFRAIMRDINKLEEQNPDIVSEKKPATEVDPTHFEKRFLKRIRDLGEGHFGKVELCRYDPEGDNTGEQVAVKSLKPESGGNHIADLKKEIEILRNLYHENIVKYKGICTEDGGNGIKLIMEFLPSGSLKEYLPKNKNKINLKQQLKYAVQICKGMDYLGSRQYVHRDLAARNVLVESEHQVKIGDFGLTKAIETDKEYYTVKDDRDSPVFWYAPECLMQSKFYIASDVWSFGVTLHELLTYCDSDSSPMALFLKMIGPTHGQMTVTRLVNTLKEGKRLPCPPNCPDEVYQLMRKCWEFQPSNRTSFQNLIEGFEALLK

SMILES	% Inhibition 10 nM	% Inhibition 100 nM	% Inhibition 1000 nm	inhibition at 0.01 µM	inhibition at 0.1 µM
CC(C)CS(=O)(=O)NC1CC2(C1)CC(N(C)c1ncnc3[nH]ccc13)C2 (centres unmarked) [Compound 19, 2-methyl-N-[2-[methyl(7H-pyrrolo[2,3-d]pyrimidin-4-yl)amino]spiro[3.3]heptan-6-yl]propane-1-sulfonamide]	–	–	94%	27%	73%
CC(C)S(=O)(=O)NC1CC2(C1)CC(N(C)c1ncnc3[nH]ccc13)C2 (centres unmarked) [Compound 18, N-[2-[methyl(7H-pyrrolo[2,3-d]pyrimidin-4-yl)amino]spiro[3.3]heptan-6-yl]propane-2-sulfonamide]	–	–	94%	23%	71%
CN(c1ncnc2[nH]ccc12)C1CC2(CC(NS(=O)(=O)c3ccccc3Cl)C2)C1 (centres unmarked) [Compound 12, 2-chloro-N-[2-[methyl(7H-pyrrolo[2,3-d]pyrimidin-4-yl)amino]spiro[3.3]heptan-6-yl]benzenesulfonamide]	–	–	90%	15%	60%

Second part, the molecule after the results:

% Inhibition 10 nM	% Inhibition 100 nM	% Inhibition 1000 nm	inhibition at 0.01 µM	inhibition at 0.1 µM	SMILES
12%	52%	89%	–	–	CNS(=O)(=O)C1CC2(CC(N(C)c3ncnc4[nH]ccc34)C2)C1 (single isomer, unassigned; enantiomer b) [Compound 27, (Enantiomer B)-N-methyl-6-[methyl(7H-pyrrolo[2,3-d]pyrimidin-4-yl)amino]spiro[3.3]heptane-2-sulfonamide]
77%	96%	98%	–	–	CNS(=O)(=O)C1CC2(CC(N(C)c3ncnc4[nH]ccc34)C2)C1 (single isomer, unassigned; enantiomer a) [Compound 26, (Enantiomer A)-N-methyl-6-[methyl(7H-pyrrolo[2,3-d]pyrimidin-4-yl)amino]spiro[3.3]heptane-2-sulfonamide]
–	–	94%	13%	60%	CN(c1ncnc2[nH]ccc12)C1CC2(C1)CC(S(N)(=O)=O)C2 (centres unmarked) [Compound 28, 6-[methyl(7H-pyrrolo[2,3-d]pyrimidin-4-yl)amino]spiro[3.3]heptane-2-sulfonamide]
–	–	–	76%	96%	CN(c1ncnc2[nH]ccc12)C1CC2(CC(CNS(C)(=O)=O)C2)C1 (centres unmarked) [Compound 22, N-((6-(methyl(7H-pyrrolo[2,3-d]pyrimidin-4-yl)amino)spiro[3.3]heptan-2-yl)methyl)methanesulfonamide]
